Reference: PubChem BioAssay AID248 (DTP/NCI, 2004)
“And” between values parts separate entries of the source, which are not always exact repeats. Identical values can stand only once. Inconclusive results and toxic doses are left out. No stated cut-off is given here; in the data, active means T/C of 150% or more; inactive means T/C below 125%.

Tested on: L1210 leukemia ip in BDF1 mice, survival T/C
Assay: NCI In Vivo Anticancer Drug Screen. Data for tumor model L1210 Leukemia (intraperitoneal) in B6D2F1 (BDF1) mice
Settings: endpoint: mean survival time, higher = longer survival
Method in brief: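 Each compound was tested against a transplantable tumor grown in mice. The endpoint was survival, with treated animals benchmarked against vehicle controls as a simple ratio.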

[1] = dose: 50.0 mg/kg/injection, schedule: Q01DX001 (ip), vehicle: saline
[2] = dose: 100.0 mg/kg/injection, schedule: Q01DX001 (ip), vehicle: saline
[3] = dose: 200.0 mg/kg/injection, schedule: Q01DX001 (ip), vehicle: saline
[4] = dose: 400.0 mg/kg/injection, schedule: Q01DX001 (ip), vehicle: saline
[5] = dose: 50.0 mg/kg/injection, schedule: Q01DX001 (ip), vehicle: other
[6] = dose: 100.0 mg/kg/injection, schedule: Q01DX001 (ip), vehicle: other
[7] = dose: 200.0 mg/kg/injection, schedule: Q01DX001 (ip), vehicle: other
[8] = dose: 400.0 mg/kg/injection, schedule: Q01DX001 (ip), vehicle: other
[9] = dose: 25.0 mg/kg/injection, schedule: Q04DX003 (ip), vehicle: saline with Tween-80
[10] = dose: 50.0 mg/kg/injection, schedule: Q04DX003 (ip), vehicle: saline with Tween-80
[11] = dose: 100.0 mg/kg/injection, schedule: Q04DX003 (ip), vehicle: saline with Tween-80
[12] = dose: 100.0 mg/kg/injection, schedule: Q01DX009 (ip), vehicle: saline
[13] = dose: 200.0 mg/kg/injection, schedule: Q01DX009 (ip), vehicle: saline
[14] = dose: 100.0 mg/kg/injection, schedule: Q04DX002 (ip), vehicle: Klucel (hydroxypropylcellulose) (HPC)
[15] = dose: 100.0 mg/kg/injection, schedule: Q01DX001 (ip), vehicle: carboxymethylcellulose (CMC)
[16] = dose: 200.0 mg/kg/injection, schedule: Q01DX001 (ip), vehicle: carboxymethylcellulose (CMC)
[17] = dose: 400.0 mg/kg/injection, schedule: Q01DX001 (ip), vehicle: carboxymethylcellulose (CMC)
[18] = dose: 200.0 mg/kg/injection, schedule: Q04DX002 (ip), vehicle: Klucel (hydroxypropylcellulose) (HPC)
[19] = dose: 400.0 mg/kg/injection, schedule: Q04DX002 (ip), vehicle: Klucel (hydroxypropylcellulose) (HPC)
[20] = dose: 200.0 mg/kg/injection, schedule: Q04DX003 (ip), vehicle: saline with Tween-80
[21] = dose: 400.0 mg/kg/injection, schedule: Q04DX003 (ip), vehicle: saline with Tween-80

Measured: T/C

CS(=O)(=O)OCCN(CCOS(C)(=O)=O)c1ccc([N+](=O)[O-])c(F)c1
inactive: [1] 110 % of control | [2] 112 % of control | [3] 115 % of control | [4] 105 % of control

O=C(CCCC(=O)N/N=C/c1ccc(OCc2ccccc2)cc1)N/N=C\c1ccc(OCc2ccccc2)cc1
inactive: [5] 102 % of control | [6] 93 % of control | [7] 93 % of control | [8] 91 % of control

Cc1nc2nc(Cl)c(Cl)nc2[nH]1
inactive: [9] 92 % of control | [10] 97 % of control | dose: 100.0 mg/kg/injection, schedule: Q04DX003 (ip), vehicle: Klucel (hydroxypropylcellulose) (HPC) 102 % of control | [11] 89 % of control

CC12CC3C(C(=O)O)C(C(=O)O)C1C(C(=O)O2)C3C(=O)O (centres undefined)
inactive: dose: 50.0 mg/kg/injection, schedule: Q01DX009 (ip), vehicle: saline 97 % of control | [2] 91 % of control | [12] 90 % of control | [3] 89 % of control | [13] 100 % of control | [4] 87 % of control

COC(=O)OCCOC(=O)OC
inactive: [12] 105 % of control | dose: 100.0 mg/kg/injection, schedule: Q04DX003 (ip), vehicle: saline 100 % of control | [13] 101 % of control | dose: 200.0 mg/kg/injection, schedule: Q04DX003 (ip), vehicle: saline 102 % of control | dose: 400.0 mg/kg/injection, schedule: Q01DX009 (ip), vehicle: saline 100 % of control | dose: 400.0 mg/kg/injection, schedule: Q04DX003 (ip), vehicle: saline 103 % of control

ClC1=c2ccccc2=C2C(Cl)=c3ccccc3=C12
inactive: dose: 50.0 mg/kg/injection, schedule: Q04DX002 (ip), vehicle: Klucel (hydroxypropylcellulose) (HPC) 97 % of control | [14] 97 % of control

Nc1ccc([N+](=O)[O-])c(-c2ccccc2)c1[N+](=O)[O-]
inactive: [15] 91 % of control | [16] 91 % of control | [17] 91 % of control

S=C=Nc1ccc(Cl)cc1
inactive: [9] 107 % of control | [10] 96 % of control | [11] 95 % of control and 101 % of control

CC(C)(N)CNCC(C)(C)N
inactive: [2] 97 % of control | [3] 111 % of control

O=C(O)C1CC1c1ccc(Br)cc1 (centres undefined)
inactive: [14] 123 % of control | [18] 100 % of control

COc1ccc(CN2CCCN(Cc3ccc(OC)cc3OC)C2c2ccc(F)cc2)c(OC)c1
inactive: [1] 94 % of control | [2] 89 % of control | [3] 94 % of control | [4] 100 % of control

CCCCCCCCCCCCN=C(N)N/C(N)=N/S(=O)(=O)c1ccc(OCCC)cc1
inactive: [14] 106 % of control | [18] 100 % of control | [19] 95 % of control

O=C(O)CNCCN1CC(=O)N(Cc2ccccc2)C1=S
inactive: [15] 100 % of control | dose: 100.0 mg/kg/injection, schedule: Q01DX009 (ip), vehicle: carboxymethylcellulose (CMC) 104 % of control | dose: 100.0 mg/kg/injection, schedule: Q04DX002 (ip), vehicle: carboxymethylcellulose (CMC) 94 % of control and 103 % of control | dose: 100.0 mg/kg/injection, schedule: Q04DX003 (ip), vehicle: carboxymethylcellulose (CMC) 100 % of control | [16] 103 % of control | dose: 200.0 mg/kg/injection, schedule: Q01DX009 (ip), vehicle: carboxymethylcellulose (CMC) 93 % of control and 101 % of control | dose: 200.0 mg/kg/injection, schedule: Q04DX002 (ip), vehicle: carboxymethylcellulose (CMC) 103 % of control and 88 % of control | dose: 200.0 mg/kg/injection, schedule: Q04DX003 (ip), vehicle: carboxymethylcellulose (CMC) 98 % of control | [17] 101 % of control | dose: 400.0 mg/kg/injection, schedule: Q01DX009 (ip), vehicle: carboxymethylcellulose (CMC) 96 % of control | dose: 400.0 mg/kg/injection, schedule: Q04DX002 (ip), vehicle: carboxymethylcellulose (CMC) 98 % of control and 103 % of control

CCCCCCCCCCCCCCCCCC[N+]1(C)CCC1C (centres undefined)
inactive: dose: 0.78 mg/kg/injection, schedule: Q04DX003 (ip), vehicle: saline 102 % of control | dose: 1.56 mg/kg/injection, schedule: Q04DX003 (ip), vehicle: saline 101 % of control

CC(=O)Nc1ncn[nH]1
inactive: [1] 98 % of control | [2] 98 % of control | [3] 101 % of control | [4] 101 % of control

COc1ccc(NC(=O)c2ccc(Cl)cc2Cl)c(OC)c1
inactive: [14] 102 % of control | [18] 97 % of control | [19] 102 % of control

CC1(C)N=C(N)N=C(N)N1c1cccc(CCC(=O)Nc2ccc(S(=O)(=O)F)cc2)c1
inactive: dose: 0.8 mg/kg/injection, schedule: Q01DX009 (ip), vehicle: saline 103 % of control | dose: 4.0 mg/kg/injection, schedule: Q01DX009 (ip), vehicle: saline 101 % of control | dose: 20.0 mg/kg/injection, schedule: Q01DX009 (ip), vehicle: saline 103 % of control | [12] 112 % of control

O=C/C(Br)=C(/Br)C(=O)O
inactive: dose: 6.25 mg/kg/injection, schedule: Q04DX002 (ip), vehicle: saline 100 % of control | dose: 12.5 mg/kg/injection, schedule: Q04DX002 (ip), vehicle: saline 100 % of control | dose: 25.0 mg/kg/injection, schedule: Q04DX002 (ip), vehicle: saline + alcohol 114 % of control | dose: 25.0 mg/kg/injection, schedule: Q04DX002 (ip), vehicle: saline 111 % of control

COc1ccccc1NC(=O)NCCO
inactive: [15] 103 % of control | [16] 95 % of control | [17] 103 % of control

O=C1C(Cl)=C(Nc2ccccc2)C(=O)C(Cl)=C1Nc1ccccc1
inactive: dose: 100.0 mg/kg/injection, schedule: Q01DX009 (ip), vehicle: saline with Tween-80 87 % of control | [11] 88 % of control | dose: 200.0 mg/kg/injection, schedule: Q01DX009 (ip), vehicle: saline with Tween-80 87 % of control | [20] 92 % of control | dose: 400.0 mg/kg/injection, schedule: Q01DX009 (ip), vehicle: saline with Tween-80 94 % of control | [21] 95 % of control

COc1ccc2ncccc2c1
inactive: dose: 100.0 mg/kg/injection, schedule: Q04DX002 (ip), vehicle: saline 111 % of control | dose: 200.0 mg/kg/injection, schedule: Q04DX002 (ip), vehicle: saline 101 % of control | dose: 400.0 mg/kg/injection, schedule: Q04DX002 (ip), vehicle: saline 104 % of control

CCOC(=O)C1(c2cc(NS(=O)(=O)N(C)C)c(Cl)cc2NS(=O)(=O)N(C)C)CCCC1=O (centres undefined)
inactive: [1] 104 % of control | [2] 102 % of control | [3] 91 % of control

BrC(Br)(Br)c1ccc2ccccc2n1
inactive: [5] 109 % of control | [6] 103 % of control | [11] 93 % of control | [7] 101 % of control | [20] 93 % of control | [8] 97 % of control | [21] 95 % of control

CC(=O)Oc1ccc2c(c1)C1(C)CCCC(C)(C(=O)O)C1CC2 (centres undefined)
inactive: [11] 92 % of control | [20] 97 % of control | [21] 94 % of control

CCOCc1cnc(C)nc1N
inactive: dose: 100.0 mg/kg/injection, schedule: Q01DX001 (ip), vehicle: saline with Tween-80 94 % of control | dose: 200.0 mg/kg/injection, schedule: Q01DX001 (ip), vehicle: saline with Tween-80 94 % of control

CCCCCCCCCCC1CCC2C(C1)CC1C3CCCCC3CC21 (centres undefined)
inactive: [2] 97 % of control | [3] 97 % of control | [4] 96 % of control

CC(=O)NC(COC(C)=O)C1OC(C)(C)OC1C(COC(C)=O)OC(C)=O (centres undefined)
inactive: [2] 101 % of control | [3] 104 % of control | [4] 98 % of control

Cc1cc(C)nc(NCCCC(N)C(=O)O)n1 (centres undefined)
inactive: dose: 100.0 mg/kg/injection, schedule: Q04DX002 (ip), vehicle: saline with Tween-80 100 % of control | dose: 200.0 mg/kg/injection, schedule: Q04DX002 (ip), vehicle: saline with Tween-80 95 % of control | dose: 400.0 mg/kg/injection, schedule: Q04DX002 (ip), vehicle: saline with Tween-80 92 % of control

CN(C(=O)OCc1ccccc1)c1ccc(C(=O)NC(CC(=O)O)CC(=O)O)cc1
inactive: [2] 88 % of control | [3] 96 % of control | [4] 90 % of control

CC1CCCCN1CC(Cl)(Cl)Cl (centres undefined)
inactive: [2] 89 % of control | [3] 94 % of control

Cc1ccc(S(=O)(=O)/C=C(\C=C/c2ccccc2)c2ccccc2)cc1
inactive: dose: 100.0 mg/kg/injection, schedule: Q04DX003 (ip), vehicle: acetone 95 % of control | dose: 200.0 mg/kg/injection, schedule: Q04DX003 (ip), vehicle: acetone 95 % of control
